Experiments:
Test in all cases: radiometric filter-binding kinase assay, Kinase HotSpot
Details in all cases: compound 0.5 µM; ATP 10 µM
YES1 (human) = YES1 (human) (UniProt P07947)
CDK6 CCND1 (human) = CDK6 CCND1 (human) (UniProt Q00534+P24385)
HIPK4 (human) = HIPK4 (human) (UniProt Q8NE63)
CSNK1G3 (human) = CSNK1G3 (human) (UniProt Q9Y6M4)
MAPK11 (human) = MAPK11 (human) (UniProt Q15759)
CDK6 CCND3 (human) = CDK6 CCND3 (human) (UniProt P30281+Q00534)
MAP3K2 (human) = MAP3K2 (human) (UniProt Q9Y2U5)
Chain of MAP3K2 (human) (Q9Y2U5 whole entry, looked up): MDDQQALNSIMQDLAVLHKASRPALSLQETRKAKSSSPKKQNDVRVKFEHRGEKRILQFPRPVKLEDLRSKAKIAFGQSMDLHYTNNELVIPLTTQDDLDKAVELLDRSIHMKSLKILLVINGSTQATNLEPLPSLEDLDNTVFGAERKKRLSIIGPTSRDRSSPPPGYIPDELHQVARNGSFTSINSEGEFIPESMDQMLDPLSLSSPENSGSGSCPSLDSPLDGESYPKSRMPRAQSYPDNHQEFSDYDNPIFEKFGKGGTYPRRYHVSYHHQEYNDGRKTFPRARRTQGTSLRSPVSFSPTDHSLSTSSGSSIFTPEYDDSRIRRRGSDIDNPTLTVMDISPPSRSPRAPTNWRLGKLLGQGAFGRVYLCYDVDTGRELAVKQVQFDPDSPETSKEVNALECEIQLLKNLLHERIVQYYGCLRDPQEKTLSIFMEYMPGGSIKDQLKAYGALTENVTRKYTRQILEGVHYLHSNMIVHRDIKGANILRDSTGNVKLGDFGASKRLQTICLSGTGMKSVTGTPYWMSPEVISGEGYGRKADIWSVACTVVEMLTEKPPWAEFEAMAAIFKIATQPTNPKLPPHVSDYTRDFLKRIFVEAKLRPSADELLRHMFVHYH

RPS6KA3 KD1 KD2 (human) = RPS6KA3 KD1 KD2 (human) (UniProt P51812)
ACVRL1 (human) = ACVRL1 (human) (UniProt P37023)
CAMK2D (human) = CAMK2D (human) (UniProt Q13557)
CAMK2B (human) = CAMK2B (human) (UniProt Q13554)
STK24 (human) = STK24 (human) (UniProt Q9Y6E0)
BRSK2 (human) = BRSK2 (human) (UniProt Q8IWQ3)
SLK (human) = SLK (human) (UniProt Q9H2G2)
Chain of SLK (human) (Q9H2G2 whole entry, looked up): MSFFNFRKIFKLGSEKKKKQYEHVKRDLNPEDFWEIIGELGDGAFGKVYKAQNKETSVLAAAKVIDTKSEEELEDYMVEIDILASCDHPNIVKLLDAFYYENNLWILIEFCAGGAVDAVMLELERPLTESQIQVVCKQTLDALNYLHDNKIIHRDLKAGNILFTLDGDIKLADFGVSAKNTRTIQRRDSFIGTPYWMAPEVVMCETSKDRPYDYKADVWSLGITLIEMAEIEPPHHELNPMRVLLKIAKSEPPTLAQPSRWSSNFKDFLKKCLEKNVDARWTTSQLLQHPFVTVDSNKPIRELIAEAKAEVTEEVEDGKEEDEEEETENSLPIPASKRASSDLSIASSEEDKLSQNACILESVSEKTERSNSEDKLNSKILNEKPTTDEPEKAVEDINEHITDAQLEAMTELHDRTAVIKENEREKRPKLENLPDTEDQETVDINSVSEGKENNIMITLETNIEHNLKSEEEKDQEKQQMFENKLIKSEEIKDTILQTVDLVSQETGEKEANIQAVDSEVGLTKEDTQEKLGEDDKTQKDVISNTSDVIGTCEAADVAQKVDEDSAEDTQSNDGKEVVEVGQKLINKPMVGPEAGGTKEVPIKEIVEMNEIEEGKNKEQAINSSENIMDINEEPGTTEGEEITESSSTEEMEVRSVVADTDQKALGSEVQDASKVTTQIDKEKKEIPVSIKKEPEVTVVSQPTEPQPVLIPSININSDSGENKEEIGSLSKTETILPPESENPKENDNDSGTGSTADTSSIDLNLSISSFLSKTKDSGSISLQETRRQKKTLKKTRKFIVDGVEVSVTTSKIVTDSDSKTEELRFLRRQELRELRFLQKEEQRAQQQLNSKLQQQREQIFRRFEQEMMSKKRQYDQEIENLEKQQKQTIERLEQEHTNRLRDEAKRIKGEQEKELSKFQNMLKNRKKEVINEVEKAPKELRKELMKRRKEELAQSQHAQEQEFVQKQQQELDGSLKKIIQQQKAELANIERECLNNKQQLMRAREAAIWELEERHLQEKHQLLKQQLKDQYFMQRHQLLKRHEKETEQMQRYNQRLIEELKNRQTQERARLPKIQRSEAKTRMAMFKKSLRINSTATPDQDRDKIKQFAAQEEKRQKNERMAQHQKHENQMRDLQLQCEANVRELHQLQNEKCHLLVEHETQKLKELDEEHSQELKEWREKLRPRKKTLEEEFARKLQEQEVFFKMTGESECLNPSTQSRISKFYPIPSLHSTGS

STK25 (human) = STK25 (human) (UniProt O00506)
DYRK3 (human) = DYRK3 (human) (UniProt O43781)
SRC (human) = SRC (human) (UniProt P12931)
STK17A (human) = STK17A (human) (UniProt Q9UEE5)
Chain of STK17A (human) (Q9UEE5 whole entry, looked up): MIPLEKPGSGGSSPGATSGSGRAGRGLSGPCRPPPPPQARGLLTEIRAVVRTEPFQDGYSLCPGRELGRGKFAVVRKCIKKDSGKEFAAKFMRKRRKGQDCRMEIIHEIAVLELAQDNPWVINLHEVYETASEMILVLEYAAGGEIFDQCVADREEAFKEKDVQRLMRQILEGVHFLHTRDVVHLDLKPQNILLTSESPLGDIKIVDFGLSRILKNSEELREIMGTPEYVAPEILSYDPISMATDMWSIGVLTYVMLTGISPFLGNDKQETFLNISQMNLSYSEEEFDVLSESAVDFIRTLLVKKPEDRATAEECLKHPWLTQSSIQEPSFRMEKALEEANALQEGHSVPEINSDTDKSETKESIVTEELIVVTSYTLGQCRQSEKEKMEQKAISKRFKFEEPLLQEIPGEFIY

CLK1 (human) = CLK1 (human) (UniProt P49759)
EPHA4 (human) = EPHA4 (human) (UniProt P54764)
MAP3K7 TAB1 (human) = MAP3K7 TAB1 (human) (UniProt O43318+Q15750)
CAMK1D (human) = CAMK1D (human) (UniProt Q8IU85)
TYRO3 (human) = TYRO3 (human) (UniProt Q06418)
CSF1R (human) = CSF1R (human) (UniProt P07333)
DYRK1B (human) = DYRK1B (human) (UniProt Q9Y463)
MAPKAPK2 (human) = MAPKAPK2 (human) (UniProt P49137)
SGK3 (human) = SGK3 (human) (UniProt Q96BR1)
BRSK1 (human) = BRSK1 (human) (UniProt Q8TDC3)
MAP3K14 (human) = MAP3K14 (human) (UniProt Q99558)
FGFR3 (human) = FGFR3 (human) (UniProt P22607)
GRK5 (human) = GRK5 (human) (UniProt P34947)
Chain of GRK5 (human) (P34947 whole entry, looked up): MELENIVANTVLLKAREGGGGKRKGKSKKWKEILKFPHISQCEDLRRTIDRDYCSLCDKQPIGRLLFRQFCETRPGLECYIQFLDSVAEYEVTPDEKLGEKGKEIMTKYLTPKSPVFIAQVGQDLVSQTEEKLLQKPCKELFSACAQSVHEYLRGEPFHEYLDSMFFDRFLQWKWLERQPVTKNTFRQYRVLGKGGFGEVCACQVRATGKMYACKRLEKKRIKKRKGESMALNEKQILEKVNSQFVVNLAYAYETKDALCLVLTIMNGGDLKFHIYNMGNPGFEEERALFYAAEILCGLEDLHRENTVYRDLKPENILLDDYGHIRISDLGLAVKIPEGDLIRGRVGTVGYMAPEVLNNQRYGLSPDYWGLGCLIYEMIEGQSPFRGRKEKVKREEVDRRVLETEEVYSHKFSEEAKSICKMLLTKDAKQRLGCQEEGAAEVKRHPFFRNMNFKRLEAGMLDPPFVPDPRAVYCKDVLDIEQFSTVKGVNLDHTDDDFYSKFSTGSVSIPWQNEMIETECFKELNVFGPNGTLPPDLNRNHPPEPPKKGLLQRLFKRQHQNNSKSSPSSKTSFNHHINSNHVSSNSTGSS

ERBB2 (human) = ERBB2 (human) (UniProt P04626)
Chain of ERBB2 (human) (P04626 whole entry, looked up): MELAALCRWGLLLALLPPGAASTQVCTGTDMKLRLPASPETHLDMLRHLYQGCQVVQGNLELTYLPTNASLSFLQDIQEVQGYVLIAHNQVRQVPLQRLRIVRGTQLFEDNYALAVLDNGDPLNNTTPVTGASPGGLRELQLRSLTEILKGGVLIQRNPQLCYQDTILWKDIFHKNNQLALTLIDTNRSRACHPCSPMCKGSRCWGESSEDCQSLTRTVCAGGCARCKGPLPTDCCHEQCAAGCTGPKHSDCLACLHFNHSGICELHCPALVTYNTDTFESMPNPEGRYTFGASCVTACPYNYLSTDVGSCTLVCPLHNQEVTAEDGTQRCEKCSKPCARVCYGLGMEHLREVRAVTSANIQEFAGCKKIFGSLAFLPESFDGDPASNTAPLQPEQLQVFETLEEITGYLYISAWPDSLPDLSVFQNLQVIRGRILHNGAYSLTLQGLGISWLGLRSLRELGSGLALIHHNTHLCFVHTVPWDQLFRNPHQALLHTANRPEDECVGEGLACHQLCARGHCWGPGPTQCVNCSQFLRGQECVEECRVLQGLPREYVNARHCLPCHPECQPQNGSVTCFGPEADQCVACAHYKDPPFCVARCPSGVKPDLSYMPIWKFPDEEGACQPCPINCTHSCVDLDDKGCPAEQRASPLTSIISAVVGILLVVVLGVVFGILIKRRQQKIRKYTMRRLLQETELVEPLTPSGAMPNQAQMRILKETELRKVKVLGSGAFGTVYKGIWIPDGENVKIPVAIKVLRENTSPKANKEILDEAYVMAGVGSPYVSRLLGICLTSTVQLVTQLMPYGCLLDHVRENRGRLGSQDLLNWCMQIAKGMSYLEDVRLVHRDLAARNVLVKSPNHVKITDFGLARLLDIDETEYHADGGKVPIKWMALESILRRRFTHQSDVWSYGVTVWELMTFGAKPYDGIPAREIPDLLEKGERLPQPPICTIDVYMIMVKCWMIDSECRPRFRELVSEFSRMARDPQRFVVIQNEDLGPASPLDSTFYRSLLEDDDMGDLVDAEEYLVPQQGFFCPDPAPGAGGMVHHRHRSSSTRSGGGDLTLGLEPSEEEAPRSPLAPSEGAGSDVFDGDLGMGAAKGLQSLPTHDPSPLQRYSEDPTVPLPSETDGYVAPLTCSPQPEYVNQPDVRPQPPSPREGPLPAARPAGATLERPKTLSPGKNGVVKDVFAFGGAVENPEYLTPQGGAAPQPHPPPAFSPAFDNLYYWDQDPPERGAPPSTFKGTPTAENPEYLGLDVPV

RPS6KA2 KD1 KD2 (human) = RPS6KA2 KD1 KD2 (human) (UniProt Q15349)
NTRK3 (human) = NTRK3 (human) (UniProt Q16288)
NLK (human) = NLK (human) (UniProt Q9UBE8)
Chain of NLK (human) (Q9UBE8 whole entry, looked up): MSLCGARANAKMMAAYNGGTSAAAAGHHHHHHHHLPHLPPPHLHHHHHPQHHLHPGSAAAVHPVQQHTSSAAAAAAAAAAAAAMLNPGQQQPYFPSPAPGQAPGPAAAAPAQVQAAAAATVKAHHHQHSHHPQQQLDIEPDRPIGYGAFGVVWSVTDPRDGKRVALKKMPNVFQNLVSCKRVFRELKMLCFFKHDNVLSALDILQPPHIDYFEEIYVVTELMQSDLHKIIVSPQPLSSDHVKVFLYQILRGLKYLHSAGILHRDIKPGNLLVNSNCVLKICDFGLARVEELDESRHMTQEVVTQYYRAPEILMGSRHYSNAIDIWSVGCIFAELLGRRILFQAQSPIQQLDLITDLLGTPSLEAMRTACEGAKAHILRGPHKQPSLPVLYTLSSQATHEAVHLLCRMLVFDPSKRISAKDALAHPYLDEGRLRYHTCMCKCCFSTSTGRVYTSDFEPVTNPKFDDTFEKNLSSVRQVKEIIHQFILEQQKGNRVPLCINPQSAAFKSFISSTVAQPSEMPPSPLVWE

CSNK1A1 (human) = CSNK1A1 (human) (UniProt P48729)
Chain of CSNK1A1 (human) (P48729 whole entry, looked up): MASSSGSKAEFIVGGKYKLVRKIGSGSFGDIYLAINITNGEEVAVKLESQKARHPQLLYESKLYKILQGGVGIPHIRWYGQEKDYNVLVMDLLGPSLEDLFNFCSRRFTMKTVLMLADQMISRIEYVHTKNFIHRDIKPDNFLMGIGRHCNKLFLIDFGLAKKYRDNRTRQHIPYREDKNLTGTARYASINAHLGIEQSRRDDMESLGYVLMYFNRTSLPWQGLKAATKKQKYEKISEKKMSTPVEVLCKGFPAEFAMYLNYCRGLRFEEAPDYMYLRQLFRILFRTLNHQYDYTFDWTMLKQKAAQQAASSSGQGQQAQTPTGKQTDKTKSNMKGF

TTK (human) = TTK (human) (UniProt P33981)
CDK9 CCNK (human) = CDK9 CCNK (human) (UniProt O75909+P50750)
MST4 (human) = MST4 (human) (UniProt Q9P289)
PRKCE (human) = PRKCE (human) (UniProt Q02156)
HIPK1 (human) = HIPK1 (human) (UniProt Q86Z02)

| Structure (SMILES) | residual activity (YES1 (human)) [%] | residual activity (CDK6 CCND1 (human)) [%] | residual activity (HIPK4 (human)) [%] | residual activity (CSNK1G3 (human)) [%] | residual activity (MAPK11 (human)) [%] | residual activity (CDK6 CCND3 (human)) [%] | residual activity (MAP3K2 (human)) [%] | residual activity (ACVRL1 (human)) [%] | residual activity (CAMK2D (human)) [%] | residual activity (CAMK2B (human)) [%] | residual activity (STK24 (human)) [%] | residual activity (BRSK2 (human)) [%] | residual activity (SLK (human)) [%] | residual activity (STK25 (human)) [%] | residual activity (DYRK3 (human)) [%] | residual activity (SRC (human)) [%] | residual activity (STK17A (human)) [%] | residual activity (CLK1 (human)) [%] | residual activity (EPHA4 (human)) [%] | residual activity (MAP3K7 TAB1 (human)) [%] | further results |
| --- | --- | --- | --- | --- | --- | --- | --- | --- | --- | --- | --- | --- | --- | --- | --- | --- | --- | --- | --- | --- | --- |
| O=c1c(-c2ccc(F)cc2)c(-c2ccncc2)[nH]n1-c1ccc(Cl)cc1 | 85.1 | 92.3 | 94.6 | 102 | 55.9 | 93.7 | 98.9 | 88.1 | 95.6 | 93.7 | 111 | 90.8 | 98.2 | 111 | 82.7 | 91.6 | 105 | 97 | 93.5 | 100 | residual activity (RPS6KA3 KD1 KD2 (human)): 94.3%; residual activity (CAMK1D (human)): 72.2%; residual activity (TYRO3 (human)): 105%; residual activity (CSF1R (human)): 102%; residual activity (DYRK1B (human)): 92.2%; residual activity (MAPKAPK2 (human)): 98.5%; residual activity (SGK3 (human)): 100%; residual activity (BRSK1 (human)): 88.7%; residual activity (MAP3K14 (human)): 102%; residual activity (FGFR3 (human)): 88.1%; residual activity (GRK5 (human)): 90.3%; residual activity (ERBB2 (human)): 103%; residual activity (RPS6KA2 KD1 KD2 (human)): 91.8%; residual activity (NTRK3 (human)): 99.2%; residual activity (NLK (human)): 16%; residual activity (CSNK1A1 (human)): 63.7%; residual activity (TTK (human)): 110%; residual activity (CDK9 CCNK (human)): 93.4%; residual activity (MST4 (human)): 94.1%; residual activity (PRKCE (human)): 96.7% |
| Cc1cc(Nc2nc(-c3ccccc3)nc3ccccc23)n[nH]1 | 20.4 | 85.5 | 102 | 75 | 96.8 | 58.4 | 78.4 | 115 | 97.3 | 97.7 | 66 | 61.4 | 42.2 | 86.7 | 81.9 | 24.4 | 81.3 | 74 | 70.7 | 78.3 | residual activity (RPS6KA3 KD1 KD2 (human)): 66.1%; residual activity (HIPK1 (human)): 96.3%; residual activity (CAMK1D (human)): 85.4%; residual activity (TYRO3 (human)): 94.2%; residual activity (CSF1R (human)): 33.1%; residual activity (DYRK1B (human)): 90.8%; residual activity (MAPKAPK2 (human)): 100%; residual activity (SGK3 (human)): 104%; residual activity (MAP3K14 (human)): 93.5%; residual activity (FGFR3 (human)): 71.7%; residual activity (GRK5 (human)): 119%; residual activity (ERBB2 (human)): 108%; residual activity (RPS6KA2 KD1 KD2 (human)): 50.7%; residual activity (NTRK3 (human)): 2.01%; residual activity (NLK (human)): 94.7%; residual activity (CSNK1A1 (human)): 94.6%; residual activity (TTK (human)): 102%; residual activity (CDK9 CCNK (human)): 89.8%; residual activity (MST4 (human)): 91.2%; residual activity (PRKCE (human)): 87.1% |
| N#C/C(=C1/Nc2ccccc2S1)c1ccnc(NCCc2cccnc2)n1 | 89.1 | 89.7 | 97.6 | 87.1 | 101 | 94.6 | 98.1 | 102 | 89.3 | 97.3 | 95.6 | 88.1 | 87.7 | 97.7 | 103 | 86.8 | 94 | 75.4 | 104 | 91.5 | residual activity (HIPK1 (human)): 109%; residual activity (CAMK1D (human)): 108%; residual activity (TYRO3 (human)): 98.3%; residual activity (CSF1R (human)): 99.2%; residual activity (DYRK1B (human)): 53.2%; residual activity (MAPKAPK2 (human)): 97.8%; residual activity (SGK3 (human)): 107%; residual activity (BRSK1 (human)): 92.7%; residual activity (MAP3K14 (human)): 109%; residual activity (FGFR3 (human)): 98.2%; residual activity (GRK5 (human)): 93.8%; residual activity (ERBB2 (human)): 104%; residual activity (RPS6KA2 KD1 KD2 (human)): 89.6%; residual activity (NTRK3 (human)): 80.2%; residual activity (NLK (human)): 94.9%; residual activity (CSNK1A1 (human)): 80%; residual activity (TTK (human)): 80.9%; residual activity (CDK9 CCNK (human)): 26.6%; residual activity (MST4 (human)): 104%; residual activity (PRKCE (human)): 92.1% |

— the kinase profiling compilation of Christmann-Franck et al. (2016)
